Test results: patent publication US20250248998A1, “LRRK2 Inhibitors” (Brenig Therapeutics, Inc., priority 2022, published 2025)

How the values were obtained:
LRRK2 WT [1] = target: T1, LRRK2 WT (Homo sapiens, UniProt Q5S007); assay: Enzymatic activity inhibition against LRRK2 WT (ADP-Glo kinase assay, LRRKtide substrate); type: biochemical; set-up: purchased SignalChem Biotech, Inc. L10-11G-10; conditions: recombinant LRRK2 WT 36 nM, ATP, 1 h at rt, average Ki
Protocol: Example B. Primary Assays Used to Determine Potency of the LRRK2 Inhibition
Assay for Determining Enzymatic Activity Inhibition Against LRRK2 WT.
Compound activity was determined using recombinant LRRK2 WT protein (SignalChem Biotech, Inc., Cat #L10-11G-10) and LRRKtide substrate (SignalChem Biotech, Inc., Cat #L10-58) in an in vitro enzymatic reaction. The enzymatic reaction was carried out in assay buffer (40 mM TRIS-HCl pH 7.4, 20 mM MgCl2, 0.05 mM DTT, 0.1 mg/mL BSA). The compounds were dispensed into a 384 well Diamond Well Plate (Axigen, Cat #P-384-120SQ-C-S) using the Biomek FX liquid handling system at 80× solutions of compounds in DMSO. The 2× Protein-Substrate mix (final concentration 36 nM of LRRK2 WT and 0.8 μg/μL of LRRKtide) was prepared in the 1× Assay buffer and 4 μL of mixture per well was added into the 384-well white Reaction plate with NBS (Corning, Cat #CLS4513). The 4 μL of LRRKtide substrate w/o LRRK2 WT in the 1× buffer was used for a negative control. Plates were centrifuged for 1 min at 200 g. Next the compounds were added to Reaction plate using Biomek station via following steps: 1 μL of 80× compounds (in DMSO) were mixed thoroughly with 39 μL of 2×10 μM ATP in Assay Buffer, then 4 μL of this mixture was added to Reaction plate with 4 μL of Protein-Substrate mix. Plates were centrifuged for 1 min at 200 g and incubated for 1 hour at rt. Then, 4 μL per well of ADP-Glo reagent (Promega, ADP-Glo™ Kinase Assay, Cat #V9102) was added. Plates were incubated for 30 minutes at rt. Then, 8 μL per well of Kinase detection reagent (Promega, ADP-Glo™ Kinase Assay, Cat #V9102) was added and the luminescence signal was measured with a microplate reader. The % inhibition was then used to calculate the Ki values. The average Ki values are shown in Table B, wherein “A” corresponds to Ki<10.0 nM, “B” corresponds to 10.0 nM K Ki<20.0 nM, “C” 20.0 nM K Ki<50.0 nM, “D” corresponds to 50.0 nM K Ki<100.0 nM and “E” corresponds to Ki>100.0 nM.
Target sequence in this assay (Q5S007 970-2527 limits assumed): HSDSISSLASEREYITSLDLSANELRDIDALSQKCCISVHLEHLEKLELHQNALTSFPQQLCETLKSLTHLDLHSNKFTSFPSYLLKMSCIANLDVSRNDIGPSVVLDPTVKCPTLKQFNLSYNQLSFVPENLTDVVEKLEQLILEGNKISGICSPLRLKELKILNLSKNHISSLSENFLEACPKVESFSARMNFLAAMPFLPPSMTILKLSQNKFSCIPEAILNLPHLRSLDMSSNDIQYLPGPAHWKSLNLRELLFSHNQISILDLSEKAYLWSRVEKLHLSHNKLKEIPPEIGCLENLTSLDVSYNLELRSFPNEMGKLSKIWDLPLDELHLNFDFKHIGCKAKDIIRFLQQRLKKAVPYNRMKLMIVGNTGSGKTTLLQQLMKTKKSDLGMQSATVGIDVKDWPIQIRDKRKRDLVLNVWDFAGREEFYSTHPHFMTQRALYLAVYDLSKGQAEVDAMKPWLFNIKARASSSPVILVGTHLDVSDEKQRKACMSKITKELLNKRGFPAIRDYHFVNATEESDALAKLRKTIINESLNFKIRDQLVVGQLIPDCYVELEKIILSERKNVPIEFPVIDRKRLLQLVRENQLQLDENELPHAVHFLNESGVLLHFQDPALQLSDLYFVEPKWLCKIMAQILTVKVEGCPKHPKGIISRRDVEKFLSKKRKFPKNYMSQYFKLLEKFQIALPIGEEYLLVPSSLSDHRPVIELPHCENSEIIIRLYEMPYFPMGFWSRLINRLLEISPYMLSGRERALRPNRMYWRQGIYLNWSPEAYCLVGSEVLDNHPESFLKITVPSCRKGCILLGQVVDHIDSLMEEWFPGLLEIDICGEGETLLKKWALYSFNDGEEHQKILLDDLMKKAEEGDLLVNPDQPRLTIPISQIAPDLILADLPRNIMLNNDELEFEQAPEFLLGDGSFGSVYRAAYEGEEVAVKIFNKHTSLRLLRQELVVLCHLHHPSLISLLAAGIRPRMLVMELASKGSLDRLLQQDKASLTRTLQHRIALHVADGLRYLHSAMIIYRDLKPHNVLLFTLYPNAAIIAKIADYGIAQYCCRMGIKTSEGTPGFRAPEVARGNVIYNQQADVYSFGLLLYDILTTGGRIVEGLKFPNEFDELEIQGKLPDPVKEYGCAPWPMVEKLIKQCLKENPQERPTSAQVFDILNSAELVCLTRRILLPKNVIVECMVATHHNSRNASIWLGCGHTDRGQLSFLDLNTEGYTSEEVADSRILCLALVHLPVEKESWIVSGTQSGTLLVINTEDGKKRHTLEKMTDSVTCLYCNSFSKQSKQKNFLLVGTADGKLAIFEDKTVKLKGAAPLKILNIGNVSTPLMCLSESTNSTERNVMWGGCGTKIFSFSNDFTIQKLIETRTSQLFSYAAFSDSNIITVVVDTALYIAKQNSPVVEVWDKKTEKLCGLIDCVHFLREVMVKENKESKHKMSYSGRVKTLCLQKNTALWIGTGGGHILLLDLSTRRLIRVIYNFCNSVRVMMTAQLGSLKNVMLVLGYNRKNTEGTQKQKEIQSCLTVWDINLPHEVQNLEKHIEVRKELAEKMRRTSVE

LRRK2[G2019S] [2] = target: T2, LRRK2[G2019S] (Homo sapiens, UniProt Q5S007, G2019S); assay: Enzymatic activity inhibition against LRRK2[G2019S] (ADP-Glo kinase assay, LRRKtide substrate); type: biochemical; set-up: purchased SignalChem Biotech, Inc. L10-12GG-10; conditions: recombinant LRRK2[G2019S] 36 nM, ATP, 1 h at rt, average Ki
Protocol: Example A. Primary Assays Used to Determine Potency of the LRRK2 Inhibition
Assay for Determining Enzymatic Activity Inhibition Against LRRK2[G2019S].
Compound activity was determined using recombinant LRRK2[G2019S] protein (SignalChem Biotech, Inc., Cat #L10-12GG-10) and LRRKtide substrate (SignalChem Biotech, Inc., Cat #L10-58) in an in vitro enzymatic reaction. The enzymatic reaction was carried out in assay buffer (40 mM TRIS-HCl pH 7.4, 20 mM MgCl2, 0.05 mM DTT, 0.1 mg/mL BSA). The compounds were dispensed into a 384 well Diamond Well Plate (Axigen, Cat #P-384-120SQ-C-S) using the Biomek FX liquid handling system at the 80× solutions of compounds in DMSO. The 2× Protein-Substrate mix (final concentration 36 nM of LRRK2[G2019S] and 0.8 μg/μL of LRRKtide) was prepared in 1× Assay buffer and 4 μL of mixture per well was added into the 384-well white Reaction plate with NBS (Corning, Cat #CLS4513). The 4 μL of LRRKtide substrate w/o LRRK2[G2019S] in the 1× buffer was used for a negative control. Plates were centrifuged for 1 min at 200 g. Next the compounds were added to the reaction plate using Biomek station via following steps: 1 μL of 80× compounds (in DMSO) were mixed thoroughly with 39 μL of 2×10 μM ATP in Assay Buffer, then 4 μL of this mixture was added to Reaction plate with 4 μL of Protein-Substrate mix. Plates were centrifuged for 1 min at 200 g and incubated for 1 h at rt. Then, 4 μL per well of ADP-Glo reagent (Promega, ADP-Glo™ Kinase Assay, Cat #V9102) was added. Plates were incubated for 30 min at rt. Then, 8 μL per well of Kinase detection reagent (Promega, ADP-Glo™ Kinase Assay, Cat #V9102) was added and the luminescence signal was measured with a microplate reader. The luminescence signal was detected with CLARIOstar Plus (BMG LABTECH) microplate reader. The % inhibition was then used to calculate the Ki values. The average Ki values are shown in Table A, wherein “A” corresponds to Ki<5.0 nM, “B” corresponds to 5.0 nM≤Ki<10.0 nM, “C” 10.0 nM≤Ki<50.0 nM, “D” corresponds to 50.0 nM≤Ki<100.0 nM and “E” corresponds to Ki>100.0 nM.
Target sequence in this assay (Q5S007 970-2527 G2019S limits assumed): as the sequence (Q5S007 970-2527 limits assumed) above, with G1050S counted along it

LRRK2 WT [3] = target: T1, LRRK2 WT; assay: Cell-based NanoBRET target engagement assay in HEK293 cells transfected with LRRK2 WT-NanoLuc fusion vector; set-up: expressed in transfected cells; host or cells: HEK293 (ATCC); conditions: compound treatment 1 h
Protocol: (§1) Example C. Cell-Based NanoBRET Target Engagement Assay in 11EK293 Cells Transiently Transfected with LRRK2 WT- or LRRK2 (G2019S)-Nano Luc Fusion Vector
(§2) H1EK293 (ATCC) cells were transfected with […] LRRK2 WT or LRRK2 (G2019S) and 9 μg transfection carrier DNA. The transfected cells were treated with the compounds (starting at 1 μM, 10-dose with 3-fold dilution) and reference compounds CEP-701 or Staurosporine (starting at 1 μM, 10-dose with 3-fold dilution); compound treatment time: 1 h. LRRK2 WT and LRRK2 (G2019S) target engagement was measured by NanoBRET assay. Curve fits were performed only when % NanoBret signal at the highest concentration of compounds was less than […]. Assay format: 384-well format, 4000 cells/well. The IC50 values are shown in Table C, wherein “A” corresponds to IC50≤50.0 nM, “B” corresponds to 50.0 nM≤IC50<100.0 nM, “C” corresponds to 100.0 nM≤IC50.
Target sequence in this assay (Q5S007 whole entry): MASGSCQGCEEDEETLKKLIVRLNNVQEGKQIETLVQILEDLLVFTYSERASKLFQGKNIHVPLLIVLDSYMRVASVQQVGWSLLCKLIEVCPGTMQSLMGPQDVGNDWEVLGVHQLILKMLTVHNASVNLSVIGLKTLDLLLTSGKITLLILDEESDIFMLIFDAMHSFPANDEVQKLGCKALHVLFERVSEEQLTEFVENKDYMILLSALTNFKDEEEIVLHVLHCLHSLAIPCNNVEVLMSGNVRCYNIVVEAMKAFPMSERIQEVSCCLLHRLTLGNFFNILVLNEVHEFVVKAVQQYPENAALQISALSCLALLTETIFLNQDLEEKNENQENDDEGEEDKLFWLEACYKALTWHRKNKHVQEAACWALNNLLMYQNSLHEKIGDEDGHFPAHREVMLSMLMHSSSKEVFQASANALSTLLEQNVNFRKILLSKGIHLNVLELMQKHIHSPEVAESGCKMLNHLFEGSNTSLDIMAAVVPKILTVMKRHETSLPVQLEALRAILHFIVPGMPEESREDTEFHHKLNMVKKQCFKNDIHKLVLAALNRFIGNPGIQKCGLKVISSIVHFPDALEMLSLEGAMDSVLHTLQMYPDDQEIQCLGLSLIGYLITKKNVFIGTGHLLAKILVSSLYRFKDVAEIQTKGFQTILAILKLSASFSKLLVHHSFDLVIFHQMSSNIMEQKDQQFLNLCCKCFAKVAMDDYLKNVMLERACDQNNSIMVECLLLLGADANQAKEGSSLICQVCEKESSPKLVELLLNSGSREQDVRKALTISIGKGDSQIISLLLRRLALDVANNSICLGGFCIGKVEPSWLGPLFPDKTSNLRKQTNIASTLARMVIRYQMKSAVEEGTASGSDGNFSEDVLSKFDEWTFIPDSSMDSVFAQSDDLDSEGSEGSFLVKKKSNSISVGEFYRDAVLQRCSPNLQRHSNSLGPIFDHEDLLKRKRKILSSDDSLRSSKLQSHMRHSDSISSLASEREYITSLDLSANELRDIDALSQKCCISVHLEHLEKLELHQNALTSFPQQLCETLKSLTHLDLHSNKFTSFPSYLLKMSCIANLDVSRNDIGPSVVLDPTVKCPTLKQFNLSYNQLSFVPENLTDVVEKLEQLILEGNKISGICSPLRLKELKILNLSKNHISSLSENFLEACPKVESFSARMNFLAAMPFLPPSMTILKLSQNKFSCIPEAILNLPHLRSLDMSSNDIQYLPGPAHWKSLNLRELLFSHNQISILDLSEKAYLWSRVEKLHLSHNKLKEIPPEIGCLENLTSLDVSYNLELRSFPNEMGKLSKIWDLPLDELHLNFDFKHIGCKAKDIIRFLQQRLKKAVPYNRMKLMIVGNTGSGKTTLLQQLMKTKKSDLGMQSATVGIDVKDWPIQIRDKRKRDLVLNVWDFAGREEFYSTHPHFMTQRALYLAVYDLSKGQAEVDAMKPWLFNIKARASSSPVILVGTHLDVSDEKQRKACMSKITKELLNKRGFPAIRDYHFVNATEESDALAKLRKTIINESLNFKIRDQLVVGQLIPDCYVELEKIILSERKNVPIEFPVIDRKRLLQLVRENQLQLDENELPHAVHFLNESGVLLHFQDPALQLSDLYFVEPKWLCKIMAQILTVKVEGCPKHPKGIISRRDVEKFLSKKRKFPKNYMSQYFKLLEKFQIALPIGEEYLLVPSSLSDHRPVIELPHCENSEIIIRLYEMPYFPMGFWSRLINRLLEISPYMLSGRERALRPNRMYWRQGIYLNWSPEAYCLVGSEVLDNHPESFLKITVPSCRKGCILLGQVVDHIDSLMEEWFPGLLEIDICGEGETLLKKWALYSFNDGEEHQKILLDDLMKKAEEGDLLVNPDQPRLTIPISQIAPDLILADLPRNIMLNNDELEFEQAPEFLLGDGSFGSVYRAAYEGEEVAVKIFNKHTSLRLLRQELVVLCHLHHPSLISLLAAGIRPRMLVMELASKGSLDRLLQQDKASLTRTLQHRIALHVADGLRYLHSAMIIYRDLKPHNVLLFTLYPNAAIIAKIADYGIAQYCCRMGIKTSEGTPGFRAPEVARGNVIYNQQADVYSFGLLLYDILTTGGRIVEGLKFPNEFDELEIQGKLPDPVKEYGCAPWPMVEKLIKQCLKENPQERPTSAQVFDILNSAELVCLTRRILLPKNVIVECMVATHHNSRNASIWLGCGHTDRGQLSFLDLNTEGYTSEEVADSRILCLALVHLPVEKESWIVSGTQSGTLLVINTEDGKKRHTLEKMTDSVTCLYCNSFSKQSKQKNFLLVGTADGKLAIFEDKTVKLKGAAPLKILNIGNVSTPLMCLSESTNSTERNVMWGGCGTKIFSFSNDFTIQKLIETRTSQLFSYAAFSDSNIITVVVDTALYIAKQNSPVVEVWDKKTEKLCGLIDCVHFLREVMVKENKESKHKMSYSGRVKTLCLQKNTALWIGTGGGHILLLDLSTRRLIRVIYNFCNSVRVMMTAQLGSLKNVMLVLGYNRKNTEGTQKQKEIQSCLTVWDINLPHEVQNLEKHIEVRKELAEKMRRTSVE

LRRK2[G2019S] [4] = target: T2, LRRK2[G2019S]; assay: Cell-based NanoBRET target engagement assay in HEK293 cells transfected with LRRK2 (G2019S)-NanoLuc fusion vector; set-up: expressed in transfected cells; host or cells: HEK293 (ATCC); conditions: compound treatment 1 h
Protocol: as §1, §2
Target sequence in this assay (Q5S007 whole entry G2019S): as the sequence (Q5S007 whole entry) above, with G2019S counted along it

Row | SMILES | Ki (LRRK2 WT [1]) | Ki (LRRK2[G2019S] [2]) | IC50 (LRRK2 WT [3]) | IC50 (LRRK2[G2019S] [4])
1 | Cc1c(OC(C)C)ccc2[nH]nc(-c3cc(N4CCOCC4)c(=O)n(C)n3)c12 [Compound 24, 6-(5-isopropoxy-4-methyl-1H-indazol-3-yl)-2-methyl-4-morpholino-pyridazin-3-one] | > 100 nM | > 100 nM | – | –
2 | Cn1nc(-c2n[nH]c3ccc(OC4CCC4)cc23)cc(N2CCOCC2)c1=O [Compound 28, 6-[5-(cyclobutoxy)-1H-indazol-3-yl]-2-methyl-4-morpholino-pyridazin-3-one] | ≤ 10 nM | ≤ 5 nM | ≥ 100 nM | ≥ 100 nM
3 | CC(C)Oc1ccc2[nH]nc(-c3cnnc(N4CCOCC4)n3)c2c1 [Compound 13, 4-[5-(5-isopropoxy-1H-indazol-3-yl)-1,2,4-triazin-3-yl]morpholine] | ≤ 10 nM | 5 to 10 nM | – | –
4 | Cn1nc(-c2n[nH]c3ccc4c(c23)CCCO4)cc(N2CCOCC2)c1=O [Compound 29, 2-methyl-4-morpholino-6-(3,7,8,9-tetrahydropyrano[3,2-e]indazol-1-yl)pyridazin-3-one] | 50 to 100 nM | > 100 nM | – | –
5 | Cc1nnc(-c2n[nH]c3ccc(OC(C)C)cc23)cc1N1CCOCC1 [Compound 10, 4-[6-(5-isopropoxy-1H-indazol-3-yl)-3-methyl-pyridazin-4-yl]morpholine] | ≤ 10 nM | 10 to 50 nM | – | –
6 | Cn1nc(-c2n[nH]c3ccc(OC(F)(F)F)cc23)cc(N2CCOCC2)c1=O [Compound 22, 2-methyl-4-morpholino-6-[5-(trifluoromethoxy)-1H-indazol-3-yl]pyridazin-3-one] | > 100 nM | > 100 nM | – | –
7 | Cn1nc(-c2n[nH]c3ccc(OC(F)F)cc23)cc(N2CCOCC2)c1=O [Compound 32, 6-[5-(difluoromethoxy)-1H-indazol-3-yl]-2-methyl-4-morpholino-pyridazin-3-one] | > 100 nM | 50 to 100 nM | – | –
8 | Cn1nc(-c2n[nH]c3ccc(-n4cccc4C#N)cc23)cc(N2CCOCC2)c1=O [Compound 45, 1-[3-(1-methyl-5-morpholino-6-oxo-pyridazin-3-yl)-1H-indazol-5-yl]pyrrole-2-carbonitrile] | ≤ 10 nM | 10 to 50 nM | – | –
9 | Cn1nc(-c2n[nH]c3cc4c(cc23)OCCC4)cc(N2CCOCC2)c1=O [Compound 31, 2-methyl-4-morpholino-6-(1,6,7,8-tetrahydropyrano[2,3-f]indazol-3-yl)pyridazin-3-one] | 50 to 100 nM | > 100 nM | – | –
10 | CC(C)Oc1cccc2[nH]nc(-c3cc(N4CCOCC4)c(=O)n(C)n3)c12 [Compound 15, 6-(4-isopropoxy-1H-indazol-3-yl)-2-methyl-4-morpholino-pyridazin-3-one] | > 100 nM | > 100 nM | – | –
11 | Cn1nc(-c2n[nH]c3ccc(S(C)(=O)=O)cc23)cc(N2CCOCC2)c1=O [Compound 33, 2-methyl-6-(5-methylsulfonyl-1H-indazol-3-yl)-4-morpholino-pyridazin-3-one] | 50 to 100 nM | > 100 nM | – | –

Further lines, with some results ahead:

Row | Ki (LRRK2 WT [1]) | Ki (LRRK2[G2019S] [2]) | SMILES | IC50 (LRRK2 WT [3]) | IC50 (LRRK2[G2019S] [4])
12 | 50 to 100 nM | > 100 nM | Cn1nc(-n2ncc3ccc(C(C)(C)C#N)cc32)cc(N2CCOCC2)c1=O [Compound 43, 2-methyl-2-[1-(1-methyl-5-morpholino-6-oxo-pyridazin-3-yl)indazol-6-yl]propanenitrile] | – | –
13 | ≤ 10 nM | ≤ 5 nM | CC(C)Oc1ccc2[nH]nc(-c3cnnc(N4CCOCC4)c3)c2c1 [Compound 4, 4-[5-(5-isopropoxy-1H-indazol-3-yl)pyridazin-3-yl]morpholine] | 50 to 100 nM | ≤ 50 nM
14 | > 100 nM | > 100 nM | O=S1(=O)CCCC1c1ccc2cnn(-c3cnnc(N4CCCC4)c3)c2c1 (stereo not shown) [Compound 34, 2-[1-(6-pyrrolidin-1-ylpyridazin-4-yl)indazol-6-yl]thiolane 1,1-dioxide] | – | –
15 | 10 to 20 nM | ≤ 5 nM | CC(C)Oc1ccc2[nH]nc(-c3cnnc(N4CCCC4)c3)c2c1 [Compound 5, 5-isopropoxy-3-(6-pyrrolidin-1-ylpyridazin-4-yl)-1H-indazole] | – | –
16 | 50 to 100 nM | > 100 nM | N#CC1(c2ccc3cnn(-c4cnnc(N5CCCC5)c4)c3c2)CC1 [Compound 36, 1-[1-(6-pyrrolidin-1-ylpyridazin-4-yl)indazol-6-yl]cyclopropanecarbonitrile] | – | –
17 | 10 to 20 nM | 5 to 10 nM | CC(C)Oc1ccc2[nH]nc(-c3cnnc(N4CC(O)C4)c3)c2c1 [Compound 1, 1-[5-(5-isopropoxy-1H-indazol-3-yl)pyridazin-3-yl]azetidin-3-ol] | – | –
18 | > 100 nM | > 100 nM | N#CC1(c2ccc3cnn(-c4cnnc(N5CCCC5)c4)c3c2)CCCCC1 [Compound 37, 1-[1-(6-pyrrolidin-1-ylpyridazin-4-yl)indazol-6-yl]cyclohexanecarbonitrile] | – | –
19 | ≤ 10 nM | 50 to 100 nM | Cn1nc(-n2ncc3ccc(C4(C#N)CC4)cc32)cc(N2CCOCC2)c1=O [Compound 41, 1-[1-(1-methyl-5-morpholino-6-oxo-pyridazin-3-yl)indazol-6-yl]cyclopropanecarbonitrile] | – | –
20 | 20 to 50 nM | 50 to 100 nM | CC(C)(C#N)c1ccc2cnn(-c3cnnc(N4CCCC4)c3)c2c1 [Compound 35, 2-methyl-2-[1-(6-pyrrolidin-1-ylpyridazin-4-yl)indazol-6-yl]propanenitrile] | – | –
21 | 20 to 50 nM | 50 to 100 nM | N#CC1(c2ccc3cnn(-c4cnnc(N5CCCC5)c4)c3c2)CCCC1 [Compound 39, 1-[1-(6-pyrrolidin-1-ylpyridazin-4-yl)indazol-6-yl]cyclopentanecarbonitrile] | – | –
